From ChEMBL document CHEMBL3351440, “Synthesis of diethylamino-curcumin mimics with substituted triazolyl groups and their sensitization effect of TRAIL against brain cancer cells” (2014)
Calls of active or inactive are those of the source. The calls are words filed in the database; no cut-off is given here.

Key:
[1] = Induction of apoptosis in human CRT-MG cells assessed as cell death at 10 uM after 24 hrs by LDH release assay; assay type: functional
[2] = Induction of apoptosis in human CRT-MG cells assessed as inhibition of cell proliferation at 10 uM after 24 hrs; assay type: functional
[3] = (§1) Induction of TRAIL-mediated human CRT-MG cell death at 10 uM after 24 hrs by LDH release assay relative to control; assay type: functional
CRT-MG [4] = test: as §1; assay type: functional
[5] = (§2) Cytotoxicity against TRAIL-induced human CRT-MG cells at 50 uM after 24 hrs; assay type: functional
CRT-MG [6] = test: as §2; assay type: functional
[7] = Cytotoxicity against TRAIL-induced human U87MG cells assessed as cleavage of procaspase 3/8 at 10 uM after 48 hrs by MTS colorimetric assay; assay type: functional, U-87MG ATCC
[8] = Cytotoxicity against TRAIL-induced human U251MG cells assessed as cleavage of procaspase 3/8 at 10 uM after 48 hrs by MTS colorimetric assay; assay type: functional, U-251
LNCaP = test: Cytotoxicity against TRAIL-induced human LNCAP cells assessed as caspase 3 activity at 10 uM after 48 hrs by MTS colorimetric assay relative to control; assay type: functional

Row | SMILES | Activity [1] [%] | Activity (CRT-MG [4]) | other results
1 | CCN(CC)c1ccc(/C=C/C(=O)c2cccc(N=[N+]=[N-])c2)cc1 | 27.8 | – | inhibition at 10 µM [2]: 55.6%; Activity [3]: 78.3%
2 | CCN(CC)c1ccc(/C=C/C(=O)c2cccc(-n3cc(-c4ccc(F)cc4)nn3)c2)cc1 | <20 | Active | –
3 | CCN(CC)c1ccc(/C=C/C(=O)c2cccc(-n3cc(C(C)(C)O)nn3)c2)cc1 | 13.3 | – | Activity [5]: <20%; fold change (FC) [3]: 2.5
4 | CCN(CC)c1ccc(/C=C/C(=O)c2cccc(-n3cc(-c4ccc(C)cc4)nn3)c2)cc1 | <20 | Active | –
5 | CCN(CC)c1ccc(/C=C/C(=O)c2cccc(-n3cc(-c4ccccc4C(F)(F)F)nn3)c2)cc1 | <20 | Active | Activity (CRT-MG [6]): Active
6 | COc1cc(/C=C/C(=O)CC(=O)/C=C/c2ccc(O)c(OC)c2)ccc1O [CURCUMIN] | – | – | Activity [7]: 45%; Activity [8]: 60%; Ratio (LNCaP): 2
7 | CCCCCc1ccc(-c2cn(-c3cccc(C(=O)/C=C/c4ccc(N(CC)CC)cc4)c3)nn2)cc1 | <20 | Active | –
8 | C=C(C)c1cn(-c2cccc(C(=O)/C=C/c3ccc(N(CC)CC)cc3)c2)nn1 | <20 | Active | –
9 | CCN(CC)c1ccc(/C=C/C(=O)c2cccc(-n3cc(-c4ccccc4)nn3)c2)cc1 | 14.3 | – | Activity (CRT-MG [6]): Active; fold change (FC) [3]: 2.5
10 | CCN(CC)c1ccc(/C=C/C(=O)c2cccc(-n3cc(-c4ccc(Br)cc4)nn3)c2)cc1 | – | Active | Activity [5]: <20%
11 | CCN(CC)c1ccc(/C=C/C(=O)c2cccc(-n3cc(-c4cccc(Cl)c4)nn3)c2)cc1 | <20 | Active | –
12 | CCN(CC)c1ccc(/C=C/C(=O)c2cccc(-n3cc(-c4ccc(OC)cc4)nn3)c2)cc1 | <20 | Active | –
13 | CCN(CC)c1ccc(/C=C/C(=O)c2cccc(-n3cc(-c4cc(F)cc(F)c4)nn3)c2)cc1 | <20 | – | –
